Assay results taken from patent US6544979B1, “Fused imidazole derivatives for improving oral bioavailability of pharmaceutical agents” (Janssen Pharmaceuticals, N.V., priority 1997, dated 2003).
One block for each compound: values may come before it.

Legend:
[1] = test system: P388/ADR (adriamycine resistance cell line) murine leukemia; assay: MDR in vivo test: reversal of adriamycine resistance in P388/ADR murine leukemia, survival; set-up: species or system mice; settings: for MST %: control = 100%
Method: Male B6D2F1 mice (18-21 g) were injected intraperitoneally with 1×10^5 P388/ADR cells at day 0. Daily intraperitoneal treatment with adriamycine, a test compound of formula (I) or a combination of both was installed from day 1 until day 10. Control animals received the vehicle (15% 4-OH-propyl-β-cyclodextrine in saline). Each group consisted of 8 animals. Adriamycine was dosed at a concentration of 1.25 mg/kg body weight, half the maximal tolerable dose of adriamycine in this treatment schedule. The test compound was dosed at 20, 10, 5, 2.5, 1.25 and 0.63 mg/kg either as single treatment or combined with adriamycine.
Survival of the animals was recorded each day and expressed as a percentage of the median survival in the treated groups compared to the median survival in the control group, the latter to be said to be 100%.
Table C-1 lists the effect of compound 6 and adriamycine on the survival of mice injected with P388/ADR leukemia.
doses of compound 6 and adriamycine are expressed as mg/kg body weight.
column “% Change vs. ADR” give the difference in MST% of the different groups compared to the MST% in the adriamycine-monotherapy group.

in vivo = settings: mouse, po, 10 mg/kg
Method: The increase in drug bioavailability is defined as an increase in the Area Under the Curve (AUC). AUC is the integrated measure of systemic drug concentrations over time in units of mass-time/volume. The AUC from time zero (the time of dosing) to time infinity (when no drug remains in the body) following the administration of a drug dose is a measure of the exposure of the test subject, i.e. an animal or a human patient, to the drug.
Mice were treated orally (80 mg/kg po) with compound (6) about 10 to 20 minutes prior to oral administration of taxol (10 mg/kg po). The Area Under the Curve (AUC) was measured and compared with the AUC of mice treated only with taxol.

[2] = adriamycine 1.25 mg/kg alone, ip daily day 1-10
[3] = compound 6 0.63 mg/kg combined with adriamycine 1.25 mg/kg
[4] = compound 6 0.63 mg/kg single treatment
[5] = compound 6 1.25 mg/kg combined with adriamycine 1.25 mg/kg
[6] = compound 6 1.25 mg/kg single treatment
[7] = compound 6 2.5 mg/kg combined with adriamycine 1.25 mg/kg
[8] = compound 6 2.5 mg/kg single treatment
[9] = compound 6 5 mg/kg combined with adriamycine 1.25 mg/kg
[10] = compound 6 5 mg/kg single treatment
[11] = compound 6 10 mg/kg combined with adriamycine 1.25 mg/kg
[12] = compound 6 10 mg/kg single treatment
[13] = compound 6 20 mg/kg combined with adriamycine 1.25 mg/kg
[14] = compound 6 20 mg/kg single treatment

Structure (SMILES): COc1cccc2c1C(=O)c1c(O)c3c(c(O)c1C2=O)C[C@@](O)(C(=O)CO)C[C@@H]3O[C@H]1C[C@H](N)[C@H](O)[C@H](C)O1 [Adriamycine, adriamycine, reference compound]
% Change vs. ADR [1, 2]: 0% | Survival Days med(min-max) [1, 2]: 13(12-15) Days | MST % [1, 2]: 118%

Structure (SMILES): COC(=O)c1cnc2n1CCc1ccccc1C2=C1CCN(CCc2ccc(OCc3ccc4ccccc4n3)cc2)CC1 [Compound 6, methyl 6,11-dihydro-11-[1-[2-[4-(2-quinolinylmethoxy)phenyl]ethyl]-4-piperidinylidene]-5H-imidazo[2,1-b][3]-benzazepine-3-carboxylate]
% Change vs. ADR [1, 3]: 14% | Survival Days med(min-max) ([1]; compound 6 0.63 mg/kg combined with adriamycine 1.25 mg/kg, ip daily day 1-10): 14.5(14->30) Days | MST % [1, 3]: 132% | % Change vs. ADR [1, 4]: −18% | Survival Days med(min-max) ([1]; compound 6 0.63 mg/kg single treatment, ip daily day 1-10): 11(10-12) Days | MST % [1, 4]: 100% | % Change vs. ADR [1, 5]: 18% | Survival Days med(min-max) ([1]; compound 6 1.25 mg/kg combined with adriamycine 1.25 mg/kg, ip daily day 1-10): 15(14-17) Days | MST % [1, 5]: 136% | % Change vs. ADR [1, 6]: −13% | Survival Days med(min-max) ([1]; compound 6 1.25 mg/kg single treatment, ip daily day 1-10): 11.5(10-16) Days | MST % [1, 6]: 105% | % Change vs. ADR [1, 7]: 14% | Survival Days med(min-max) ([1]; compound 6 2.5 mg/kg combined with adriamycine 1.25 mg/kg, ip daily day 1-10): 14.5(10-20) Days | MST % [1, 7]: 132% | % Change vs. ADR [1, 8]: −23% | Survival Days med(min-max) ([1]; compound 6 2.5 mg/kg single treatment, ip daily day 1-10): 10.5(10-12) Days | MST % [1, 8]: 95% | % Change vs. ADR [1, 9]: 14% | Survival Days med(min-max) ([1]; compound 6 5 mg/kg combined with adriamycine 1.25 mg/kg, ip daily day 1-10): 14.5(11-16) Days | MST % [1, 9]: 132% | % Change vs. ADR [1, 10]: −18% | Survival Days med(min-max) ([1]; compound 6 5 mg/kg single treatment, ip daily day 1-10): 11(10-13) Days | MST % [1, 10]: 100% | % Change vs. ADR [1, 11]: 18% | Survival Days med(min-max) ([1]; compound 6 10 mg/kg combined with adriamycine 1.25 mg/kg, ip daily day 1-10): 15(14-28) Days | MST % [1, 11]: 136% | % Change vs. ADR [1, 12]: −23% | Survival Days med(min-max) ([1]; compound 6 10 mg/kg single treatment, ip daily day 1-10): 10.5(10-13) Days | MST % [1, 12]: 95% | % Change vs. ADR [1, 13]: 23% | Survival Days med(min-max) ([1]; compound 6 20 mg/kg combined with adriamycine 1.25 mg/kg, ip daily day 1-10): 15.5(14-17) Days | MST % [1, 13]: 141% | % Change vs. ADR [1, 14]: −18% | Survival Days med(min-max) ([1]; compound 6 20 mg/kg single treatment, ip daily day 1-10): 11(10-14) Days | MST % [1, 14]: 100%

Structure (SMILES): CC(=O)O[C@H]1C(=O)[C@@]2(C)[C@H]([C@H](OC(=O)c3ccccc3)[C@]3(O)C[C@H](OC(=O)[C@H](O)[C@@H](NC(=O)c4ccccc4)c4ccccc4)C(C)=C1C3(C)C)[C@]1(OC(C)=O)CO[C@@H]1C[C@@H]2O [taxol, paclitaxel]
AUC (in vivo): 820 ± 110 ng·h/mL

Now from value to compound:

melting point: 242.1 °C
Structure (SMILES): OC1Cn2ccnc2C(=C2CCN(CCc3ccc(OCc4ccc5ccccc5n4)cc3)CC2)c2ccsc21 (racemic) [Compound 28, (±)-6,10-dihydro-10-[1-[2-[4-(2-quinolinylmethoxy)-phenyl]ethyl]-4-piperidinylidene]-5H-imidazo[1,2-a]-thieno[3,2-d]azepin-6-ol]

melting point: 193.5 °C
Structure (SMILES): O=Cc1cnc2n1CCc1ccccc1C2=C1CCN(CCc2ccc(OCc3ccc4ccccc4n3)cc2)CC1 [Compound 4, 6,11-dihydro-11-[1-[2-[4-(2-quinolinylmethoxy)phenyl]ethyl]-4-piperidinylidene]-5H-imidazo[2,1-b][3]benzazepine-3-carboxaldehyde]

melting point: 174.2 °C
Structure (SMILES): O=C(O)c1cnc2n1CCc1ccccc1C2=C1CCN(CCc2ccc(OCc3ccc4ccccc4n3)cc2)CC1 [Compound 7, 6,11-dihydro-11-[1-[2-[4-(2-quinolinylmethoxy)phenyl]ethyl]-4-piperidinylidene]-5H-imidazo[2,1-b][3]benzazepine-3-carboxylic acid]

melting point: 214.8 °C
Structure (SMILES): COc1cc(CN2CCC(=C3c4ccccc4CCn4ccnc43)CC2)cc(OC)c1OCc1ccc2ccccc2n1 [Compound 32, 11-[1-[[3,5-dimethoxy-4-(2-quinolinylmethoxy)-phenyl]methyl]-4-piperidinylidene]-6,11-dihydro-5H-imidazo[2,1-b][3]benzazepine]
